Experimental data published in a compilation of properties of binary mixtures.

Assay: xn = mol fraction of the nth substance listed
Conditions: 101 kPa

CCCC[n+]1ccc(C)cc1.F[B-](F)(F)F + CO
viscosity [mPa·s]
Conditions | 298.15 K | 313.15 K | 323.15 K
x1 = 0.0151 | 0.621 | 0.507 | –
x2 = 0 | – | 81 | 50.2
x2 = 0.4287 | – | – | 9.2
x2 = 0.5246 | – | 7.58 | 5.92
x2 = 0.5678 | 9.3 | 6.31 | 4.95
x2 = 0.718 | 4.19 | – | 2.5
x2 = 0.8313 | 2.02 | 1.54 | –
x2 = 0.8803 | 1.46 | – | –
x2 = 0.9154 | 1.11 | 0.877 | 0.763
x2 = 0.9452 | 0.868 | 0.696 | 0.611
x2 = 0.9671 | – | 0.586 | 0.519
x2 = 0.9775 | 0.669 | 0.544 | 0.476

CO + CCCC[n+]1ccc(C)cc1.F[B-](F)(F)F
x1 = 1
Conditions | viscosity [mPa·s]
313.15 K | 0.436
323.15 K | 0.383
